# Assay: Solubility estimation at RT by visual observation in solvent systems
# Type: physicochemical
# Settings: organic solvent or mixture, thermodynamic from solid
# Protocol: The solubility of compound 1 was estimated at RT by visual observation in 11 solvent systems. Approximately 5 mg solids were weighed into 8 mL glass vial, and then solvent was added stepwise until solids were dissolved completely or a total of solvent volume reached 5 mL. […] The solubility was estimated and for reference only.
compound,measurement,setting,value
"CNC(=O)c1ccc(N2CCN(Cc3cnc4cc(C5CC5)c(=O)[nH]c4c3)CC2)cn1 [Starting material, 5-(4-((7-cyclopropyl-6-oxo-5,6-dihydro-1,5-naphthyridin-3-yl)methyl)piperazin-1-yl)-N-methylpicolinamide]",solubility,"most of the 11 tested solvent systems, RT, most tested solvents, except DMSO",< 5000 µg/mL
same,solubility,"estimated at RT, visual observation, DMSO",20000 to 50000 µg/mL
same,solubility,"estimated at RT, Acetone, ACN, Toluene, EA, n-Heptane, Water, Anisole, DCM, THF",< 1000 µg/mL
same,solubility,"estimated, visual observation, MeOH, THF (50° C.)",1000 to 5000 µg/mL
